Measurements from patent US10294243B2, “Bicyclic compounds as pesticides” (BAYER CROPSCIENCE AKTIENGESELLSCHAFT, priority 2014, dated 2019).
Read-outs that look alike come from different tables or passages of the source.

How the values were obtained:
[1] = test system: Myzus persicae; test: Myzus persicae - spray test (Chinese cabbage leaf discs); format: in vivo; conditions: application rate 500 g/ha, after 6 days; for pest or weed control at 500 g/ha: Myzus persicae, foliar, 144 h, read-out: efficacy (aphids killed)
Protocol: Myzus persicae—Spray Test
Solvent: 78 parts by weight of acetone • • 1.5 parts by weight of dimethylformamide
Emulsifier: alkylaryl polyglycol ether
To produce further test concentrations, the preparation is diluted with emulsifier-containing water.
After 6 days, the efficacy in % is determined 100% means that all the aphids have been killed; 0% means that none of the aphids have been killed.

[2] = log P by HPLC on reversed-phase C18 columns (OECD Guideline 117); method [a] acidic pH 2.7, method [b] neutral pH 7.8; format: physicochemical; conditions: for chromatographic logP: reversed-phase C18 HPLC column
[3] = HPLC reversed-phase C18, method [a] acidic pH 2.7, read-out: logP[a]
[4] = HPLC reversed-phase C18, method [b] neutral pH 7.8, read-out: logP[b]
[5] = HPLC reversed-phase C18, method [a] acidic pH 2.7
[6] = HPLC reversed-phase C18, method [b] neutral pH 7.8

Compound | pest or weed control at 500 g/ha [1] | chromatographic logP [2, 3] | chromatographic logP [2, 4] | efficacy (aphids killed) [1] | logP[a] [2, 5] | logP[b] [2, 6]
Cc1cc(C)c([S+]([O-])CC(F)(F)F)cc1-n1cnc2nc(-c3cccnc3)sc2c1=O (stereo not drawn) [Compound 50, 6-{2,4-Dimethyl-5-[(2,2,2-trifluoroethyl)sulphinyl]phenyl}-2-(pyridin-3-yl)[1,3]thiazolo[4,5-d]pyrimidin-7(6H)-one] | 100% | 2.06 | 2.01 |  |  | 
O=c1c2sc(-c3cccnc3)nc2ncn1-c1cc(SCC(F)(F)F)c(Cl)cc1Cl [Compound 51] |  |  |  | 100% | 3.25 | 3.17
CN(C)C(=O)CSc1cccc(-n2cnc3nc(-c4cccnc4)sc3c2=O)c1 [Compound 52] |  |  |  | 90% | 1.57 | 1.55
Cc1cc(F)c(-n2cnc3nc(-c4cccnc4)sc3c2=O)cc1SCC(=O)N(C)C [Compound 54, 2-({4-Fluoro-2-methyl-5-[7-oxo-2-(pyridin-3-yl)[1,3]thiazolo[4,5-d]pyrimidin-6(7H)-yl]phenyl}sulphanyl)-N,N-dimethylacetamide] | 100% | 1.9 | 1.91 |  |  | 
Cc1cc(F)c(-n2cnc3nc(-c4cccnc4)sc3c2=O)cc1[S+]([O-])CC(=O)N(C)C (stereo not drawn) [Compound 55, 2-({4-Fluoro-2-methyl-5-[7-oxo-2-(pyridin-3-yl)[1,3]thiazolo[4,5-d]pyrimidin-6(7H)-yl]phenyl}sulphinyl)-N,N-dimethylacetamide] | 90% | 1.38 | 1.38 |  |  | 
Cc1cc(F)c(-n2c(C)nc3nc(-c4cccnc4)sc3c2=O)cc1SCC(F)(F)F [Compound 56, 6-{2-Fluoro-4-methyl-5-[(2,2,2-trifluoroethyl)sulphanyl]phenyl}-5-methyl-2-(pyridin-3-yl)[1,3]thiazolo[4,5-d]pyrimidin-7(6H)-one] | 90% | 3.25 | 3 |  |  | 
Cc1cc(F)c(-n2nnc3nc(-c4cccnc4)sc3c2=O)cc1SCC(F)(F)F [Compound 58, 3-{2-Fluoro-4-methyl-5-[(2,2,2-trifluoroethyl)sulphanyl]phenyl}-6-(pyridin-3-yl)[1,3]thiazolo[4,5-d][1,2,3]triazin-4(3H)-one] | 90% | 3.45 | 3.32 |  |  | 
Cc1cc(F)c(-n2nnc3nc(-c4cccnc4)sc3c2=O)cc1[S+]([O-])CC(F)(F)F (stereo not drawn) [Compound 59, 3-{2-Fluoro-4-methyl-5-[(2,2,2-trifluoroethyl)sulphinyl]phenyl}-6-(pyridin-3-yl)[1,3]thiazolo[4,5-d][1,2,3]triazin-4(3H)-one] | 90% | 2.4 | 2.35 |  |  | 
CCSc1ccc(-n2cnc3nc(-c4cccnc4)sc3c2=O)cc1 [Compound 60] |  |  |  | 100% | 2.41 | 2.45
CC[S+]([O-])c1ccc(-n2cnc3nc(-c4cccnc4)sc3c2=O)cc1 (stereo not drawn) [Compound 61] |  |  |  | 100% | 1.10 | 1.22
Cc1cc(SC(F)(F)F)ccc1-n1cnc2nc(-c3cccnc3)sc2c1=O [Compound 64] |  |  |  | 100% | 2.91 | 2.89
CCSc1ccccc1-n1cnc2nc(-c3cccnc3)sc2c1=O [Compound 66] |  |  |  | 100% | 2.20 | 2.21
CC[S+]([O-])c1ccccc1-n1cnc2nc(-c3cccnc3)sc2c1=O (stereo not drawn) [Compound 67] |  |  |  | 90% | 1.28 | 1.29
CSc1cc(-n2cnc3nc(-c4cncc(F)c4)sc3c2=O)ccc1C [Compound 70] |  |  |  | 100% | 2.82 | 2.75
Cc1cc(C)c(-n2cnc3nc(-c4cncc(F)c4)sc3c2=O)cc1SCC(F)(F)F [Compound 71] |  |  |  | 90% | 3.64 | 3.34
